# Data published in patent publication US4452786A, “Condurango glycoside compounds, processes for their preparation, antitumor agents comprising them and compositions” (Zenyaku Kogyo Kabushiki Kaisha, priority 1980, dated 1984).
# Legend:
# Ehrlich carcinoma = assay: Screening test against Ehrlich carcinoma, subcutaneous solid type, in mice (T/C of tumor weight on thirtieth day); format: in vivo, ddy male mice; details: intraperitoneally, once per day for ten days, average tumor weight on thirtieth day
# Method: The activity of the compounds of the present invention against Ehrlich carcinoma was confirmed by the screening test mentioned below.
# Ehrlich carcinoma was employed for the determination of the antitumor properties, and the tumor to be tested was of subcutaneous solid type.
# The animal group to which the compounds of the present invention were administered consisted of seven mice, whereas the control group consisted of ten mice.
# Six weeks old ddy male mice (body weight: 28-30 g) were employed except for the case where condurango glycoside Ao or Co was administered; in the latter case those weighing 20-26 g and being five weeks old were used.
# The tumors were transplanted intraperitoneally in the mice. On the seventh day after the transplantation, the well grown cells of the tumors were taken out, and 1.5×10^6 cells (3.0×10^6 cells in the case where condurango glycoside Ao or Co was given) thereof was transplanted subcutaneously in the inguinal region of the mice to form solid tumors. At and after 24 hours after the transplantation, the compounds of the present invention dissolved in physiological saline solutions were administered to the mice intraperitoneally.
# The volume of the respective solutions administered was 0.2 ml per mouse at one time, and the administration was continued for ten days at a rate of one time per day. Only physiological saline solutions were given to the mice of the control group.
# On the thirtieth day after the transplantation, the tumors were taken out and measured to get the average weight of the tumors of the mice of the group to which the compounds of the present invention had been administered (T) and that of the control group (C) and to calculate the T/C (%).
# [1] = Acute toxicity, intraperitoneal administration to mice, five days observation; format: in vivo; details: mouse, in vivo, ip, intraperitoneally, five weeks old ddy male mice
# Description: (§1) Next, the acute toxicity of the compounds of the present invention is as follows.
# ddy male mice = assay: as above; format: in vivo; details: intraperitoneally, five weeks old ddy male mice, 7200 min
# Description: as §1
SMILES,T/C (%) (Ehrlich carcinoma; 8 mg/kg × 10 times),T/C (%) (Ehrlich carcinoma; 16 mg/kg × 10 times),LD50 at 120 h [1] [mg/kg],T/C (%) (Ehrlich carcinoma; 32 mg/kg × 10 times),LD50 (ddy male mice) [mg/kg]
"COC1CC(OC2CCC3(C)C(CCC4C3C(OC(=O)C=Cc3ccccc3)C(OC(C)=O)C3(C)C(C(C)=O)CCC43O)C2)OC(C)C1OC1CC(OC)C(OC2OC(C)C(OC3OC(CO)C(O)C(O)C3O)C(OC)C2O)C(C)O1 (stereo not drawn) [Condurango glycoside Ao, condurango glycoside Ao]",32.1,27.3,75,–,–
"COC1CC(OC2CCC3(C)C(CCC4C3C(OC(=O)C=Cc3ccccc3)C(OC(C)=O)C3(C)C(C(C)O)CCC43O)C2)OC(C)C1OC1CC(OC)C(OC2OC(C)C(OC3OC(CO)C(O)C(O)C3O)C(OC)C2O)C(C)O1 (stereo not drawn) [Condurango glycoside Co, condurango glycoside Co]",–,30.8,375,20.1,–
"COC1CC(OC2CCC3(C)C(CCC4C3C(OC(=O)C=Cc3ccccc3)C(OC(C)=O)C35COC(C)(O)C3CCC45O)C2)OC(C)C1OC1CC(OC)C(OC2OC(C)C(OC3OC(CO)C(O)C(O)C3O)C(OC)C2O)C(C)O1 (stereo not drawn) [Condurango glycoside Do, condurango glycoside Do]",29.0,53.8,630,9.5,–
"COC1CC(OC2CCC3(C)C(CCC4C3C(OC(=O)C=Cc3ccccc3)C(OC(C)=O)C35COC(C)(OC)C3CCC45O)C2)OC(C)C1OC1CC(OC)C(OC2OC(C)C(OC3OC(CO)C(O)C(O)C3O)C(OC)C2O)C(C)O1 (stereo not drawn) [20-Iso-O-methyl-condurango glycoside Do, 20-iso-O-methyl-condurango glycoside Do]",38.1,26.3,–,18.0,642
"COC1CC(OC2CCC3(C)C(CCC4C3C(OC(=O)C=Cc3ccccc3)C(OC(C)=O)C35COC6(C)OC43CCC65)C2)OC(C)C1OC1CC(OC)C(OC2OC(C)C(OC3OC(CO)C(O)C(O)C3O)C(OC)C2O)C(C)O1 (stereo not drawn) [Condurango glycoside Bo, condurango glycoside Bo]",23.3,11.8,615,10.0,–
COC1CC(OC2CCC3(C)C(CCC4C3C(OC(=O)C=Cc3ccccc3)C(OC(C)=O)C35COC(C)(OC)C3CCC45O)C2)OC(C)C1OC1CC(OC)C(OC2OC(C)C(OC3OC(CO)C(O)C(O)C3O)C(OC)C2O)C(C)O1 (stereo not drawn) [20-O-methyl-condurango glycoside Do],16.5,11.6,603,–,–
